Structures can show the parent of a compound that is named as a salt.
Experiments:
[1] = tested on: sterol 27-hydroxylase (Hep G2 cells); assay: Sterol 27-hydroxylase activity in Hep G2 cells (metabolites in medium by GLC-MS); type: cell-based; settings: HEP G2 (n = 6), 72 h, 20 μM cholesterol; for Metabolites Derived from Sterol 27-Hydroxylase: 3βOH-5-cholen. a.: mean value of 2 dishes after solvolysis
Protocol: (§1) Bovine aortic endothelial (BAE) cells obtained from a slaughterhouse were plated at low density (2×10^5 cells/cm^2) in 100-mm dishes and were grown to confluence in Dulbecco's modified Eagle medium (DMEM) supplemented with 10% fetal bovine serum (FBS), 50 units/ml penicillin, and 50 units/ml streptomycin at 37° C. in a 5% CO2 atmosphere. The confluent monolayer was rinsed once with Hank's balanced salt solution, and 4 ml of DMEM containing 10% […] FBS and either 20 μM cholesterol dissolved in 2-hydroxypropyl-β-cyclodextrin or an equivalent amount of vehicle alone was added to each dish. Hep G2 cells and Chinese hamster ovary cells (CHO) were cultured under identical conditions and for the same length of time. At 24-h intervals, the media and cells were harvested. The medium obtained from each dish was analyzed for metabolites. Cells were pooled for immunoblot analysis.
(§2) Following acidification and extraction into ethyl acetate, the dried residue was saponified. In some studies, solvolysis was also done prior to extraction.
(§3) Using a Hewlett-Packard GLC-MS (Model #5890-5970) and a fused silica column (CP-sil 19 CB, 0.25 mm i.d., 25 m length; Chrompack, Raritan, N.J.), the appropriate TLC fractions were injected in the splitless mode with temperature programming from 260° C. to 270° C. at 1.0° C./min and a column head pressure of 5 psi.
(§4) For the C27 acid, the ion pair that was used was m/z […] [methyl ester acetate mol ion=476-60 (acetate)] and m/z 416, and for the C24 acid, m/z 370 [mol ion methyl ester acetate=430-60 (acetate)] and m/z 373.

[2] = tested on: sterol 27-hydroxylase (BAE cells); assay: Sterol 27-hydroxylase activity in BAE cells (metabolites in medium by GLC-MS); type: cell-based, bovine; settings: for Proportion of C27 bile acid of total metabolite: cholesterol-supplemented medium; for Synthesis by BAE cells: amount in medium: delipidated FBS + 20 nmol/ml cholesterol
Protocol: as §1, §2, §3, §4

[3] = tested on: sterol 27-hydroxylase (CHO cells); assay: Sterol 27-hydroxylase activity in CHO cells (metabolites in medium by GLC-MS); type: cell-based, Chinese hamster
Protocol: as §1, §2, §3, §4

[4] = tested on: rabbit smooth muscle cells; assay: Rabbit smooth muscle cell proliferation (formazan formation from MTS); type: cell-based; settings: 24 hr; for Optical density of wells (cell proliferation, MTS formazan): 20 μm, 5% delipidated FBS, control wells 0.402±0.037
Protocol: Cell proliferation at 24 hr was measured using formazan formation from MTS which is known to correlate with the number of cells present in each well.

[5] = tested on: cholesterol synthesis and accumulation; settings: cited from earlier work
[6] = tested on: hamster aortic smooth muscle cells; settings: six days, at the tested concentration; cited from earlier work
[7] = Nonfasted rabbits, treated
[8] = tested on: HCT-8; assay: Cell proliferation of tumor cell line HCT-8; type: cell-based; settings: read-out: Concentration of 27-Hydroxycholesterol Yielding 50% Growth Inhibition; HCT-8 (human colon carcinoma)
From the text: (§5) Conventional methods of cell culture were utilized in this experiment.

[9] = tested on: smooth muscle cells derived from human femoral artery; assay: Proliferation of smooth muscle cells derived from human femoral artery; type: cell-based; settings: Human Femoral A, 72 hr, read-out: Percent of Control Growth
Protocol: (§6) Smooth muscle cells were cultured according to Ross (J. Cell. Biol., 50:172, 1971) from the intima-medial layer of male Sprague-Dawley rats (200-250 g). Cells were grown in monolayers at 37° C. in a humidified atmosphere of 5% CO2 in MEM supplemented with 10% FBS, 100 U/ml penicillin, 0.1 mg/ml streptomycin, […] tricine buffer and 1% non-essential amino acid solution (Corsini et al, Atherosclerosis, 101:117, 1993). The medium was changed every third day. Cells were used between the 4th and 10th passage. Cell viability was assessed by trypan blue exclusion. Smooth muscle cells were identified for growth behavior, morphology, and using monoclonal antibody specific for α-actin, using the isoform typical for smooth muscle cells. Human vascular myocytes were taken from a human femoral artery and grown under the same culture conditions.
(§7) Smooth muscle cells derived from rat aorta were seeded at a density of 2×10^5 and those from the femoral artery at a density of 5×10^4. […] Cell proliferation was determined at 72 hr either by trypsinization of the monolayer and counting in a model ZM Coulter Counter or by incorporation of tritiated thymidine after a 3 hr incubation.

[10] = tested on: smooth muscle cells derived from rat aorta; assay: Proliferation of smooth muscle cells derived from rat aorta; type: cell-based, rat (male Sprague-Dawley); settings: 72 hr
Protocol: as §6, §7

[11] = in hydroxypropyl-beta-cyclodextrin vehicle
[12] = tested on: L1210 cells; assay: Cell proliferation of tumor cell line L1210; type: cell-based; settings: read-out: Concentration of 27-Hydroxycholesterol Yielding 50% Growth Inhibition; L1210 cells (mouse leukemia cell line)
From the text: as §5

[13] = tested on: K-12 cells; assay: Cell proliferation of tumor cell line K-12; type: cell-based; settings: K12, read-out: Concentration of 27-Hydroxycholesterol Yielding 50% Growth Inhibition; K-12 cells (adenocarcinoma line)
From the text: as §5

[14] = tested on: intimal thickening of abdominal aorta; assay: Vascular injury model: balloon-injured rabbit aorta, intimal thickening by intimal/medial (I/M) ratio; type: in vivo, New Zealand white rabbits
Protocol: New Zealand white rabbits weighing 2.6 to 5.1 kgs were anesthetized with intramuscular ketamine 35 mg/kg. Additional injections of ketamine (100 mg/cc) and xylazine (20 mg/cc) in a 50/50 mixture were given as necessary in 1 ml increments. Keflin (Eli Lilly & Co.), 30/mg/kg was given intravenously (IV). A longitudinal incision was made on the medial aspect of the distal hind limb to expose the greater saphenous artery. Arteriotomy was performed, and a 3-F Fogarty embolectomy catheter (Edwards Laboratories, Santa Ana, Calif.) was introduced and advanced to the level of the diaphragmatic abdominal aorta. The catheter was withdrawn from the abdominal aorta with the balloon inflated to a pressure of about 20 mm hg. This maneuver was repeated for a total of three passes. The catheter was removed, and the saphenous artery was ligated. […]
The abdominal aortas were fixed by perfusion with glutaraldehyde at physiological pressure via a catheter (14G Intracath) placed in the left ventricle. […] The entire intimal and medial areas in more than 2 sections per specimen were measured using Lucida computer calculation (Micro Brightfield, Inc.). The degree of intimal thickening was determined by calculating the intimal to medial area (I/M) ratio. Statistical significance of the difference in intimal/medial ratio between groups was calculated using student t-test. […]

[15] = tested on: restenosis; settings: high doses, cited from earlier work
[16] = tested on: intimal proliferation; settings: cited from earlier work
[17] = tested on: HCT-8 cells; assay: In vitro cytotoxicity test of uridyl derivative with HCT-8 cells (FIG. 1); type: cell-based, human
From the text: The results of the experimentation is illustrated in FIG. 1.

[18] = BAE (n = 6), 72 h, 20 μM cholesterol
[19] = CHO (n = 3), 72 h, 20 μM cholesterol

C[C@H](CCC(=O)O)[C@H]1CC[C@H]2[C@@H]3CC=C4C[C@@H](O)CC[C@]4(C)[C@H]3CC[C@]12C [3β-hydroxy-5-cholenoic acid]
Metabolites Derived from Sterol 27-Hydroxylase [1]: 1940 ± 270 pmol/mg/cell protein | Metabolites Derived from Sterol 27-Hydroxylase [2, 18]: not detected | Metabolites Derived from Sterol 27-Hydroxylase [3, 19]: not detected | Amount in the medium from CHO cells ([3]; compared with Hep G2 or BAE cells): small amount

CC(CCC[C@@H](C)[C@H]1CC[C@H]2[C@@H]3CC=C4C[C@@H](O)CC[C@]4(C)[C@H]3CC[C@]12C)C(=O)O (stereo partly drawn) [3β-hydroxy-5-cholestenoic acid]
Metabolites Derived from Sterol 27-Hydroxylase [1]: 471 ± 126 pmol/mg/cell protein | Optical density of wells (cell proliferation, MTS formazan) [4]: 0.357±0.22 | Metabolites Derived from Sterol 27-Hydroxylase [2, 18]: 474 ± 118 pmol/mg/cell protein | Proportion of C27 bile acid of total metabolite ([2]; BAE cells, 24 h): 3.8% | Proportion of C27 bile acid of total metabolite ([2]; BAE cells, 72 h): 17% | Synthesis by BAE cells: amount in medium ([2]; 24 h): 42.5 ± 6.1 pmol/ml medium | Synthesis by BAE cells: amount in medium ([2]; 48 h): 112 ± 12.4 pmol/ml medium | Synthesis by BAE cells: amount in medium ([2]; 72 h): 211 ± 48.3 pmol/ml medium | Metabolites Derived from Sterol 27-Hydroxylase [3, 19]: 2 ± 1 pmol/mg/cell protein

CC(CN)CCC[C@@H](C)[C@H]1CC[C@H]2[C@@H]3CC=C4C[C@@H](O)CC[C@]4(C)[C@H]3CC[C@]12C (stereo partly drawn) [27-aminocholesterol]
Potency as inhibitor of cholesterol synthesis and accumulation relative to 27-hydroxycholesterol [5]: more potent

C[C@@H](CO)CCC[C@@H](C)[C@H]1CC[C@H]2[C@@H]3CC=C4C[C@@H](O)CC[C@]4(C)[C@H]3CC[C@]12C [27-hydroxycholesterol, cholest-5-ene-3β, 27-diol]
Inhibition of proliferation [6]: about 50% | Distribution of Plasma 27-Hydroxycholesterol, LDL [7]: 55% | IC50 [8]: 11.5 µM | activity at 1 µM ([9]; 1.0 μM): 100% | activity at 5 µM ([9]; 5.0 μM, p < 0.01): 53% | activity at 1 µM ([10]; 1.0 μM, read-out: Percent of Control Growth): 90% | activity at 5 µM ([10]; 5.0 μM, p < 0.01, read-out: Percent of Control Growth): 40% | activity at 7.5 µM ([10]; 7.5 μM, read-out: Percent of Control Growth): 18% | Metabolites Derived from Sterol 27-Hydroxylase [1]: 1622 ± 291 pmol/mg/cell protein | Optical density of wells (cell proliferation, MTS formazan) [4]: 0.350±0.021 | Reduction of optical density compared to control wells ([4]; p<0.01): significant reduction | Viscosity of preparation [11]: very viscous | Metabolites Derived from Sterol 27-Hydroxylase [2, 18]: 2555 ± 348 pmol/mg/cell protein | Synthesis by BAE cells: amount in medium ([2]; 24 h): 1089 ± 111 pmol/ml medium | Synthesis by BAE cells: amount in medium ([2]; 48 h): 1064 ± 161 pmol/ml medium | Synthesis by BAE cells: amount in medium ([2]; 72 h): 1029 ± 99 pmol/ml medium | IC50 [12]: 1.2 µM | IC50 [13]: 3.7 µM | Reduction of the degree of intimal thickening as compared with the control group ([14]; Run II, 14 days): 1/2 | Amount present in medium from CHO cells (below the limit of detection) ([3]; 72 h, cholesterol-supplemented medium): < 10 ng per assay | Metabolites Derived from Sterol 27-Hydroxylase [3, 19]: not detected

CC[C@H](C)C(=O)O[C@H]1C[C@@H](C)C=C2C=C[C@H](C)[C@H](CC[C@@H]3C[C@@H](O)CC(=O)O3)[C@H]21 [Lovastatin]
Restenosis ([15]; six months following percutaneous transluminal coronary angioplasty): did not decrease restenosis | LDL-cholesterol level [15]: markedly decrease

Cc1ccc(C(=O)Nc2ccc(S(=O)(=O)O)c3cc(S(=O)(=O)O)cc(S(=O)(=O)O)c23)cc1NC(=O)c1cccc(NC(=O)Nc2cccc(C(=O)Nc3cc(C(=O)Nc4ccc(S(=O)(=O)O)c5cc(S(=O)(=O)O)cc(S(=O)(=O)O)c45)ccc3C)c2)c1 [Suramin, suramin, reference compound]
Inhibition of intimal proliferation [16]: shown to inhibit intimal proliferation | Mean Intima/Media Ratio ([14]; Run I, 14-day, test group of 5 rabbits, suramin p < 0.05, 27-hydroxycholesterol 10 mg i.v. day before surgery, 5 mg day of surgery, 5 mg twice a day days 1 to 14, in 45% HPBCD): 0.4089 ± 0.034

CC(C)CCC[C@@H](C)[C@H]1CC[C@H]2[C@@H]3CC=C4C[C@@H](O)CC[C@]4(C)[C@H]3CC[C@]12C [cholesterol]
Metabolites Derived from Sterol 27-Hydroxylase, Total [1]: 4033 pmol/mg/cell protein | Metabolites Derived from Sterol 27-Hydroxylase, Total [2, 18]: 3029 pmol/mg/cell protein | Metabolites as percent of the cholesterol added to the medium ([2]; BAE cells, 20 nmol/ml cholesterol, 72 h): approximately 5.8% | Metabolites Derived from Sterol 27-Hydroxylase, Total [3, 19]: 2 pmol/mg/cell protein

C[C@@H](CO)CCC[C@@H](C)[C@H]1CC[C@H]2[C@@H]3CC=C4C[C@@H](OP(=O)(O)OC[C@H]5O[C@@H](n6ccc(=O)[nH]c6=O)[C@H](O)[C@@H]5O)CC[C@]4(C)[C@H]3CC[C@]12C [uridine derivative, sodium salt of 3-[(25R)-26-hydroxycholesteryl]5'-uridyl monophosphate]
Inhibition of cell viability: death of HCT-8 cells ([17]; 500 μM): cell death | Percentage of viable cells ([17]; 100 to 500 μM, after 5 days of exposure): drops dramatically

Source: patent US5773431A (priority 1997, dated 1998)
